Measured values reported in paper PMC12586182 (Frontiers in Oncology, 2025).

Columns and labels:
Test in all cases: Kinase panel profiling at 1 µmol/L (mobility shift assay, Carna)
Format in all cases: biochemical
Conditions in all cases: 1 µmol/L of BTK inhibitor
[1] = target: T1, PDK1 (Homo sapiens, UniProt O15530)
T1 construct: purchased Carna Biosciences
T1 sequence (O15530 1-556): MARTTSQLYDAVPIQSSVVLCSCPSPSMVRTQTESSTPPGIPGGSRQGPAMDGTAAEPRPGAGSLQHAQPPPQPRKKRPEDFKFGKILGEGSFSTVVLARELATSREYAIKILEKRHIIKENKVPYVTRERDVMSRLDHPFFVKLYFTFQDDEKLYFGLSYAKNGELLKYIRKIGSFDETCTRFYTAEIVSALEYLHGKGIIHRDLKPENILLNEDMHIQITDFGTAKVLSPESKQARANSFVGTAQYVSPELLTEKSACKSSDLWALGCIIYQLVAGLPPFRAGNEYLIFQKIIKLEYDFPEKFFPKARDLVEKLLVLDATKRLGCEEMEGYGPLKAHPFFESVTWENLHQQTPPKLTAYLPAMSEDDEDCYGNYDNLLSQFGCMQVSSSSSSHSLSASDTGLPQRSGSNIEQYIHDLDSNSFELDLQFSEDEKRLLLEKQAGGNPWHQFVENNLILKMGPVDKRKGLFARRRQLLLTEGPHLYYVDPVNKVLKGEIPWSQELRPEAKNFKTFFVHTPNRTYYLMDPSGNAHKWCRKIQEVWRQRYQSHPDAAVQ

[2] = target: T2, MAP4K2 (Homo sapiens, UniProt Q12851)
T2 construct: purchased Carna Biosciences
T2 sequence (Q12851 1-820): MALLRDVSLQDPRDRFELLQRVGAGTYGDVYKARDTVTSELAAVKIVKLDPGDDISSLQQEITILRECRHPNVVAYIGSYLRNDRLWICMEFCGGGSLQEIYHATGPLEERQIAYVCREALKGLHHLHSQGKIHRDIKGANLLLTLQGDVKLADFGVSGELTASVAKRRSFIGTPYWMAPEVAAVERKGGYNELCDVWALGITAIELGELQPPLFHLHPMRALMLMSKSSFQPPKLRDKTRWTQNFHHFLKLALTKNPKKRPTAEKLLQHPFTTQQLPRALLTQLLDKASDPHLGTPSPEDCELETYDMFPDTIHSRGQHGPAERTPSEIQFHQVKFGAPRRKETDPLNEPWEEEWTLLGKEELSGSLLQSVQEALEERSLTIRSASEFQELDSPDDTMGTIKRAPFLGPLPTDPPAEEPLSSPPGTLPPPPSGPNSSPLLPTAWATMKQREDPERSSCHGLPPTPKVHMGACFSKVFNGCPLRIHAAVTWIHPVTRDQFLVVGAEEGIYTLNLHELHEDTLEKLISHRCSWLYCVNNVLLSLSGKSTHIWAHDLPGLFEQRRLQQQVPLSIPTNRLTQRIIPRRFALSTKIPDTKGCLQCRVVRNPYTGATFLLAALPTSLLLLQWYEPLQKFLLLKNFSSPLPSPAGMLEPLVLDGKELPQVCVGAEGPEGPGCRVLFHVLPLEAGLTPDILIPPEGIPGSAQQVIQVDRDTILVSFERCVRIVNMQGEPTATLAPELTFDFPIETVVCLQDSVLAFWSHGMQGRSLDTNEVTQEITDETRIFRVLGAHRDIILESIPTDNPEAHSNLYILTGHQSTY

[3] = target: T3, NEK6 (Homo sapiens, UniProt Q9HC98)
T3 construct: purchased Carna Biosciences
T3 sequence (Q9HC98 whole entry): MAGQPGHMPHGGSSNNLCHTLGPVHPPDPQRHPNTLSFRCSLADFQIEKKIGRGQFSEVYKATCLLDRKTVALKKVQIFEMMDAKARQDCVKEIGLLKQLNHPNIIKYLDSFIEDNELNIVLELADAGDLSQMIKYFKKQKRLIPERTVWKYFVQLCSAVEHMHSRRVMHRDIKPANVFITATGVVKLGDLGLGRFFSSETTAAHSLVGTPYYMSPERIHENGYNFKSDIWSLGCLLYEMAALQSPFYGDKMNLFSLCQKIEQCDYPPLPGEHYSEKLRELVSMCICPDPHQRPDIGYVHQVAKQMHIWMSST

[4] = target: T4, CK1α (Homo sapiens, UniProt P48729)
T4 construct: purchased Carna Biosciences
T4 sequence (P48729 whole entry): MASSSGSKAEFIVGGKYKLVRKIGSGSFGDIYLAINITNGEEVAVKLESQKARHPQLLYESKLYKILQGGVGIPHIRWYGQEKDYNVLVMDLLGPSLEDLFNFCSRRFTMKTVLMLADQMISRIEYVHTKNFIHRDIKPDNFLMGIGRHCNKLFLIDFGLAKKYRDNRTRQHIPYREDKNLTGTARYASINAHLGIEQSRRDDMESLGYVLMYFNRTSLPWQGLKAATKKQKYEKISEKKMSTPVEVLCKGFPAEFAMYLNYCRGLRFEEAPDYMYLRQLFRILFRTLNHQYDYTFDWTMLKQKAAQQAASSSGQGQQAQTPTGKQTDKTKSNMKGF

[5] = target: T5, CDK5/p25 (Homo sapiens, UniProt Q00535)
T5 construct: purchased Carna Biosciences
T5 sequence (Q00535 whole entry): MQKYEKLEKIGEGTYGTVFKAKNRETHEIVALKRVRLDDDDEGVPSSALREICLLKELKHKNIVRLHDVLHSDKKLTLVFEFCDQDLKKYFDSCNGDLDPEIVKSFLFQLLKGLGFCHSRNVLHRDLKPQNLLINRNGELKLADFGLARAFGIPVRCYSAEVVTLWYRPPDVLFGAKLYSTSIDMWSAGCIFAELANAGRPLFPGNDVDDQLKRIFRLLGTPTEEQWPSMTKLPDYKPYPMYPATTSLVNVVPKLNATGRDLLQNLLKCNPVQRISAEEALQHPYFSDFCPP
T5 sequence (Q15078 99-307 partner limits assumed): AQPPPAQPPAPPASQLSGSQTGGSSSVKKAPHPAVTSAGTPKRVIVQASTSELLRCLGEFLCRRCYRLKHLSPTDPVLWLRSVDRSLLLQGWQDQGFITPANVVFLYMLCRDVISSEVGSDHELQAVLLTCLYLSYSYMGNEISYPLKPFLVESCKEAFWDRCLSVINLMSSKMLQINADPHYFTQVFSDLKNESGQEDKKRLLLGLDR

[6] = target: T6, PLK2 (Homo sapiens, UniProt Q9NYY3)
T6 construct: purchased Carna Biosciences
T6 sequence (Q9NYY3 whole entry): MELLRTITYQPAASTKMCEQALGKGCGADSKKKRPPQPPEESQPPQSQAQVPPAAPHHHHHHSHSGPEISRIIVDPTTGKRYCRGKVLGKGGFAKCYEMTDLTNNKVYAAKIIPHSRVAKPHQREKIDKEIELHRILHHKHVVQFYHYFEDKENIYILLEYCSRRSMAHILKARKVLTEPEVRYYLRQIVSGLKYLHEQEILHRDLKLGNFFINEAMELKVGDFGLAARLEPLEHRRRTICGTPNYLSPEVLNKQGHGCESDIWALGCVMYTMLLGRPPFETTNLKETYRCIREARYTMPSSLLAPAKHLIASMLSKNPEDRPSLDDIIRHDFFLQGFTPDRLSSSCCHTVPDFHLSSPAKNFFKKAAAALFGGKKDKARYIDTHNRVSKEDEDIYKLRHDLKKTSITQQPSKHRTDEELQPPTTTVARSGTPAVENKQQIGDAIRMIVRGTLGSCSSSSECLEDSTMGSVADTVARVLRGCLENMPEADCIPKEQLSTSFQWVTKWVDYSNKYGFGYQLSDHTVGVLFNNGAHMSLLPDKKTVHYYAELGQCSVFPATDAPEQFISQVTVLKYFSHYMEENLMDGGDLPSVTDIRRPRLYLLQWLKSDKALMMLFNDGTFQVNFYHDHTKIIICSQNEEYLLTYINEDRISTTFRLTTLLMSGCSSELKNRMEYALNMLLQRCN

[7] = target: T7, PDHK4 (Homo sapiens, UniProt Q16654)
T7 construct: purchased Carna Biosciences
T7 sequence (Q16654 whole entry): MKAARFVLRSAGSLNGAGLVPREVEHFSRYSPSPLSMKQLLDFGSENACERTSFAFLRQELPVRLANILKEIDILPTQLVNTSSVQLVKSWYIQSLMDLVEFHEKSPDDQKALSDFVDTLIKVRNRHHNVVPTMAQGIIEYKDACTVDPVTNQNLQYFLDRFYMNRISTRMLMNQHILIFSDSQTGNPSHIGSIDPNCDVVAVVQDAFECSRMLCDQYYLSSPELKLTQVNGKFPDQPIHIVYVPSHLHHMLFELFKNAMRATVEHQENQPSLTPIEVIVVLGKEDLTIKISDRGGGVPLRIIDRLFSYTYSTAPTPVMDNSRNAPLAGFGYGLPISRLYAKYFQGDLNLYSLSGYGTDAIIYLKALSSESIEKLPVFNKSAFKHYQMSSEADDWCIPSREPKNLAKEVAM

[8] = target: T8, CK1γ1 (Homo sapiens, UniProt Q9HCP0)
T8 construct: purchased Carna Biosciences
T8 sequence (Q9HCP0 whole entry): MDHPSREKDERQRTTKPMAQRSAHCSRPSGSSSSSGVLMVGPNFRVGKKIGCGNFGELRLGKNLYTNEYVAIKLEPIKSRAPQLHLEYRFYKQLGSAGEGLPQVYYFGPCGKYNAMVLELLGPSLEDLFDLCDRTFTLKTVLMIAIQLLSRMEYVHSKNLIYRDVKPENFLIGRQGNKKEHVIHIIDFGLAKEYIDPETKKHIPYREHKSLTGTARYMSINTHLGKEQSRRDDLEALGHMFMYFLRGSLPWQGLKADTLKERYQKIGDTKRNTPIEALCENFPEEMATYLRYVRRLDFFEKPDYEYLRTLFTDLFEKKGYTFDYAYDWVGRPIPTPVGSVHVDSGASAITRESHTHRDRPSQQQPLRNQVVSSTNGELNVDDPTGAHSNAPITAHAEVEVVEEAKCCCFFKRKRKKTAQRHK

[9] = target: T9, BRSK1 (Homo sapiens, UniProt Q8TDC3)
T9 construct: purchased Carna Biosciences
T9 sequence (Q8TDC3 1-778): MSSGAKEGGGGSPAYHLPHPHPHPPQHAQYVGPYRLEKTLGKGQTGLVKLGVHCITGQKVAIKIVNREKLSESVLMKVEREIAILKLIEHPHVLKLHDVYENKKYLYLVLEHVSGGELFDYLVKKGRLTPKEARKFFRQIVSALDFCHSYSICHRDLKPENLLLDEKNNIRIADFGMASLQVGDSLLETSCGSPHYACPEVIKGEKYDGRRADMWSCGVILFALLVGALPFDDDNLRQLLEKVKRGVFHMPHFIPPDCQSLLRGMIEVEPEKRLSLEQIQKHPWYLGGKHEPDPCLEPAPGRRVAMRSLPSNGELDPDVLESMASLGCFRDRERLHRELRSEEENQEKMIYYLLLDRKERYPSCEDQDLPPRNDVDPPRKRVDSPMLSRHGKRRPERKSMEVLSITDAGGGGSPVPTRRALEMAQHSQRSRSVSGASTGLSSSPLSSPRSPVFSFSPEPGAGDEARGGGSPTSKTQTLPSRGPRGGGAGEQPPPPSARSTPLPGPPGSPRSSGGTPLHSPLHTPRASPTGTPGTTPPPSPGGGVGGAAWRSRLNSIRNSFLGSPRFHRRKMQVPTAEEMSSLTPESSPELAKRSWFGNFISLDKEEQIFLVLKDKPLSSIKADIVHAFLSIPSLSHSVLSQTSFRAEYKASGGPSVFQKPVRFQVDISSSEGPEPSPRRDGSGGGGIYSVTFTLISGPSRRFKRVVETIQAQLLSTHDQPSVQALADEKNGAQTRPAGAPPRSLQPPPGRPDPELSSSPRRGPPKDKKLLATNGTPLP

[10] = target: T10, skMLCK (Homo sapiens, UniProt Q9H1R3)
T10 construct: purchased Carna Biosciences
T10 sequence (Q9H1R3 whole entry): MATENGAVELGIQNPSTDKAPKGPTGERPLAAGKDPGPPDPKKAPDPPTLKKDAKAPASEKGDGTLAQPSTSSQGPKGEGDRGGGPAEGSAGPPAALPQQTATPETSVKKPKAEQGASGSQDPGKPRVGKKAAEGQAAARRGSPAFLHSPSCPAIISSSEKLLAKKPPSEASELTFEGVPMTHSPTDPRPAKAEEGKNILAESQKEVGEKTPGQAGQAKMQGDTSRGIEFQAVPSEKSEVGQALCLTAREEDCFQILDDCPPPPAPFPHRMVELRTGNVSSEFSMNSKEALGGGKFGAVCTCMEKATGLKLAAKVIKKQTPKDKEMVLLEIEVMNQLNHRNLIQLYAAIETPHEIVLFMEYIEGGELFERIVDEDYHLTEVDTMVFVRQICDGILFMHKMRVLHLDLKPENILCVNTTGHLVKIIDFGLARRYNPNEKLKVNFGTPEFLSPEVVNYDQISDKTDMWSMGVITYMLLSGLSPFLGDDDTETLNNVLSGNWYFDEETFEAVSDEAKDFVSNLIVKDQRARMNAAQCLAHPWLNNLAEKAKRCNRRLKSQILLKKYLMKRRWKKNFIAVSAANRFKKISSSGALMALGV

SMILES | Percentage inhibition of kinase enzyme activity [1] | Percentage inhibition of kinase enzyme activity [2] | Percentage inhibition of kinase enzyme activity [3] | Percentage inhibition of kinase enzyme activity [4] | Percentage inhibition of kinase enzyme activity [5] | Percentage inhibition of kinase enzyme activity [6] | Percentage inhibition of kinase enzyme activity [7] | Percentage inhibition of kinase enzyme activity [8] | Percentage inhibition of kinase enzyme activity [9] | Percentage inhibition of kinase enzyme activity [10]
CC#CC(=O)N1CCC[C@H]1c1nc(-c2ccc(C(=O)Nc3ccccn3)cc2)c2c(N)nccn12 [acalabrutinib] | -1.47% | -11.21% | -5.54% | 10.47% | -19.05% | 2.47% | 0.39% | 0.33% | -1.79% | -17.48%
C=CC(=O)N1CCC[C@@H](n2nc(-c3ccc(Oc4ccccc4)cc3)c3c(N)ncnc32)C1 [ibrutinib] | -2.01% | -4.43% | 0.77% | -1.93% | -5.18% | 1.72% |  | 3.68% | -7.32% | -16.74%
O=C(c1ccc(Oc2ccccc2)cc1Cl)c1c[nH]c2ncnc(N[C@@H]3CC[C@@H](CO)OC3)c12 [nemtabrutinib] | 2.54% | 78.03% | -0.80% | 33.46% | -18.80% | 3.06% | -2.73% | 0.57% | 12.83% | 2.60%
COc1ccc(F)cc1C(=O)NCc1ccc(-c2nn([C@@H](C)C(F)(F)F)c(N)c2C(N)=O)cc1 [pirtobrutinib] | -1.19% | 3.56% | -2.92% | 9.63% | 4.92% | 2.89% | 3.76% | 5.92% | 3.44% | -3.69%
